According to the CheMixHub viscosity set:

Assay: xn = mol fraction of the nth substance listed

Clc1cccc2ccccc12 + c1ccccc1
viscosity [mPa·s], 101.33 kPa
Conditions	x1 = 0.0989	x1 = 0.2022	x1 = 0.3275	x1 = 0.3981	x1 = 0.5035	x1 = 0.5982	x1 = 0.7022	x1 = 0.7973	x1 = 0.8976
298.15 K	0.655	0.792	0.96	1.078	1.294	1.475	1.731	2.022	2.38
303.15 K	0.609	0.727	0.903	0.994	1.188	1.349	1.586	1.833	2.126
308.15 K	0.571	0.679	0.843	0.922	1.098	1.242	1.452	1.669	1.928

Clc1ccccc1 + c1ccccc1
Conditions	viscosity [mPa·s]
293.15 K, 101.33 kPa, x1 = 0.143	0.6759
293.3 K, 101.33 kPa, x1 = 0.028	0.6845
293.55 K, 101.33 kPa, x1 = 0.232	0.711
293.65 K, 101.33 kPa, x1 = 0.318	0.7337
298.15 K, 101 kPa, x1 = 0.08	0.613
298.15 K, 101 kPa, x1 = 0.121	0.62
298.15 K, 101 kPa, x1 = 0.162	0.623
298.15 K, 101 kPa, x1 = 0.8	0.718
298.15 K, 101 kPa, x2 = 0.1034	0.7546
298.15 K, 101 kPa, x2 = 0.2016	0.7369
298.15 K, 101 kPa, x2 = 0.303	0.7233
298.15 K, 101 kPa, x2 = 0.4022	0.7072
298.15 K, 101 kPa, x2 = 0.4985	0.6923
298.15 K, 101 kPa, x2 = 0.6048	0.6743
298.15 K, 101 kPa, x2 = 0.6994	0.6625
298.15 K, 101 kPa, x2 = 0.8033	0.6462
298.15 K, 101 kPa, x2 = 0.9031	0.632
303.15 K, 101 kPa, x2 = 0.1126	0.7
303.15 K, 101 kPa, x2 = 0.2016	0.6977
303.15 K, 101 kPa, x2 = 0.2221	0.6855
303.15 K, 101 kPa, x2 = 0.303	0.6794
303.15 K, 101 kPa, x2 = 0.3286	0.6713
303.15 K, 101 kPa, x2 = 0.4322	0.6573
303.15 K, 101 kPa, x2 = 0.4985	0.652
303.15 K, 101 kPa, x2 = 0.5331	0.6432
303.15 K, 101 kPa, x2 = 0.6048	0.6347
303.15 K, 101 kPa, x2 = 0.6314	0.6285
303.15 K, 101 kPa, x2 = 0.6994	0.6217
303.15 K, 101 kPa, x2 = 0.7271	0.6127
303.15 K, 101 kPa, x2 = 0.8033	0.6064
303.15 K, 101 kPa, x2 = 0.8204	0.5964
303.15 K, 101 kPa, x2 = 0.9031	0.5883
303.15 K, 101 kPa, x2 = 0.9113	0.5798
303.15 K, 101.33 kPa, x1 = 0.143	0.6027
308.15 K, 101 kPa, x1 = 0.08	0.537
308.15 K, 101 kPa, x1 = 0.121	0.544
308.15 K, 101 kPa, x1 = 0.162	0.547
308.15 K, 101 kPa, x2 = 0.303	0.6411
308.15 K, 101 kPa, x2 = 0.4022	0.6281
308.15 K, 101 kPa, x2 = 0.4985	0.6109
308.15 K, 101 kPa, x2 = 0.6048	0.5958
308.15 K, 101 kPa, x2 = 0.6994	0.5832
308.15 K, 101 kPa, x2 = 0.8033	0.5679
308.15 K, 101 kPa, x2 = 0.9031	0.5512
313.05 K, 101.33 kPa, x1 = 0.318	0.5743
313.15 K, 101 kPa, x2 = 0.303	0.6041
313.15 K, 101 kPa, x2 = 0.4022	0.5902
313.15 K, 101 kPa, x2 = 0.4985	0.5747
313.15 K, 101 kPa, x2 = 0.6048	0.5628
313.15 K, 101 kPa, x2 = 0.6994	0.5482
313.15 K, 101 kPa, x2 = 0.8033	0.5333
313.15 K, 101 kPa, x2 = 0.9031	0.5146
313.15 K, 101.33 kPa, x1 = 0.028	0.5278
313.15 K, 101.33 kPa, x1 = 0.411	0.5831
313.25 K, 101.33 kPa, x1 = 0.143	0.54
313.25 K, 101.33 kPa, x1 = 0.232	0.5469
313.25 K, 101.33 kPa, x1 = 0.707	0.6187
313.35 K, 101.33 kPa, x1 = 0.512	0.593
313.75 K, 101.33 kPa, x1 = 0.073	0.5223
313.75 K, 101.33 kPa, x1 = 0.568	0.5979
313.75 K, 101.33 kPa, x1 = 0.849	0.6472
318.15 K, 101 kPa, x1 = 0.08	0.475
318.15 K, 101 kPa, x1 = 0.121	0.482
318.15 K, 101 kPa, x1 = 0.162	0.486
322.85 K, 101.33 kPa, x1 = 0.143	0.5005
323.15 K, 101 kPa, x1 = 0.08	0.444
323.15 K, 101 kPa, x1 = 0.121	0.451
323.15 K, 101 kPa, x1 = 0.162	0.454
323.15 K, 101 kPa, x1 = 0.8	0.541
